Source: the supplement of paper PMC10883282

Legend:
Assay in all cases: relative viability vs DMSO control (72 h) (fraction); higher = more viable cells
A204 = system: A204
Summary of the method: (§1)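 Sarcoma cell lines were seeded in 384-well plates at densities set to reach 80–90% confluence. After 24 h, 2.5 µl of serially diluted compound was added (source plates 10 mM to 0.0002 mM), and plates were held 72 h at 37 °C, 5% CO2, with 0.1% DMSO vehicle and a 5 µM positive control. Relative viability came from ATPLite readings as percent growth, averaged over up to triplicate wells. Data were rescaled so full viability equals 1 and none equals 0.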

HS729 = system: HS729
Summary of the method: as §1

KHOS-240S = system: KHOS-240S
Summary of the method: as §1

SW982 = system: SW982
Summary of the method: as §1

SYO-1 = system: SYO-1
Summary of the method: as §1

NC(=O)c1cccc2cn(-c3ccc([C@@H]4CCCNC4)cc3)nc12 [Niraparib]
relative viability
Details	A204	HS729	KHOS-240S	SW982	SYO-1
0.00017 µM	1.07	0.876	1.06	1.05	0.951
0.00051 µM	1.09	0.894	1.08	1.04	0.965
0.00152 µM	1.05	0.893	1.07	1.05	0.95
0.00457 µM	1.07	0.89	1.07	1.02	0.946
0.01372 µM	1.05	0.886	1.06	1.06	0.927
0.04115 µM	1.07	0.869	1.07	1.07	0.861
0.1235 µM	1.064	0.917	1.06	1.06	0.832
0.3704 µM	0.998	0.868	1.06	1.01	0.765
1.111 µM	0.964	0.884	1.03	0.926	0.664
3.333 µM	0.885	0.877	1.01	0.791	0.522
10 µM	0.691	0.801	0.877	0.635	0.29

C=CC(=O)Nc1cc(Nc2nccc(-c3cn(C)c4ccccc34)n2)c(OC)cc1N(C)CCN(C)C [Osimertinib]
relative viability
Details	A204	HS729	KHOS-240S	SW982	SYO-1
0.00017 µM	1.03	1.06	1.05	1.02	1.02
0.00051 µM	1.04	0.954	1.06	1.05	0.992
0.00152 µM	1.05	1.04	1.06	1.01	0.969
0.00457 µM	1.04	0.976	1.08	1.03	0.971
0.01372 µM	1.01	0.944	1.04	1.04	0.935
0.04115 µM	1.03	0.933	1.05	1.03	0.9
0.1235 µM	1.03	0.907	1.05	0.996	0.847
0.3704 µM	0.9068	0.822	1.03	0.983	0.713
1.111 µM	0.777	0.78	0.926	0.881	0.576
3.333 µM	0.582	0.681	0.767	0.678	0.418
10 µM	0.141	0.533	0.167	0.017	-0.0037

C1=N/C2=N/c3ccc(OCCN4CCCC4)c(c3)COC/C=C/COCc3cccc(c3)C(=C1)N2 [Pacritinib]
relative viability
Details	A204	HS729	KHOS-240S	SW982	SYO-1
0.00017 µM	1.07	1.1	1.05	1.04	1.01
0.00051 µM	1.05	1.055	1.08	1.08	1.01
0.00152 µM	1.07	1.03	1.08	1.12	0.997
0.00457 µM	1.1	1	1.08	1.09	0.985
0.01372 µM	1.07	1.02	1.09	1.09	1.01
0.04115 µM	1.02	0.9592	1.06	1.11	0.952
0.1235 µM	0.918	0.947	1.06	0.923	0.932
0.3704 µM	0.654	0.928	0.985	0.573	0.748
1.111 µM	0.398	0.698	0.5636	0.296	0.244
3.333 µM	0.0367	0.576	0.0954	0.157	0.0093
10 µM	0.0523	0.232	0.108	0.153	0.00973
